In patent publication US7429580B2, “Compositions of an anticonvulsant and an antipsychotic drug and methods of using the same for affecting weight loss” (Orexigen Therapeutics, Inc., priority 2004, dated 2008):
“Also recorded” adds a separate entry of the source. Like-named read-outs stand apart in the source and are kept apart here.

Columns and labels:
mice = test: Food intake in mice (acute, after fast / intra-peritoneal injection); assay type: in vivo; settings: for food intake: other preclinical experiments, each compound alone
POMC neurons = test: Electrophysiological activity of POMC neurons in brain slices from POMC-EGFP mice; assay type: cell-based
Method: (§1) The electrophysiological activity of Proopiomelanocortin (POMC) neurons in brain slices from POMC-EGFP mice are recorded. The POMC neurons in these mice are identified by the expression of green fluorescent protein (EGFP) in these, and only these, cells. The frequency of action potentials in these neurons are recorded using standard electrophysiological techniques. In particular loose cell attached patch configuration is used to determine action potential frequency, whilst minimally disturbing the cells.
as §1, with “particular,” for “particular”

[1] = Rat-weight gain assay: rodent model of mirtazapine-induced weight gain; assay type: in vivo, rats; settings: addition to concomitant mirtazapine treatment; doses tbd
Method: We have developed a model to pre-clinically test the effects of mirtazapine on body weight gain. […] Initially, a dose of 30 mg/kg of zonisamide (bid) is used, but the dose in the experiment ranges from 20 mg/kg to 90 mg/kg (bid). […] Mirtazapine or setiptiline are used as solutions in minipumps. The concentration of the solution ranges between 0.1 μM to 10 mM. In some experiments, the concentration is calculated to provide a dose of about 1 mg/kg/day. In certain experiments, the concentration is 10 μM.
In a 4×3 design rats receive implants that secrete mirtazapine, or setiptiline, or vehicle. Some rats also receive co-treatment with saline, some receive zonisamide, some receive bupropion, and others receive co-treatment with zonisamide plus bupropion. In this way cohorts of 10 rats receive all possible combinations of the weight loss drug(s) with mirtazapine or setiptiline.
Female Sprague-Dawley rats weighing about 300 grams at the start of the experiment are used. Under isoflurane anesthesia, Alzet osmotic minipumps (2 ml2) are implanted subcutaneously between the shoulder blades. The rats are returned to their home cages after recovery. The minipumps deliver 5 μL per hour for 14 days. A range of doses of mirtazapine (from 0.1 to 20 mg/kg/day dissolved in DMSO/saline) are used. […] Food consumed and animal weights are recorded every 3 days, to minimize disruption of the animals.

[2] = Rodent model of olanzapine-induced weight gain; assay type: in vivo, rats; settings: addition to concomitant olanzapine treatment (about 1.75 mg/kg/day); doses tbd
Method: Rats receive implants that secrete olanzapine (or vehicle in control groups). Some also receive co-treatment with zonisamide; others get co-treatment with zonisamide plus bupropion. Initially, a dose of 30 mg/kg of zonisamide (bid) is used, but the dose in the experiment ranges from 20 mg/kg to 90 mg/kg (bid). […] Olanzapine is used as a solution in minipumps. The concentration of the solution ranges between 0.1 μM to 10 mM. In some experiments, the concentration is calculated to provide a dose of about 1.75 mg/kg/day. In certain experiments, the concentration is 10 μM.
Female Sprague-Dawley rats weighing about 300 grams at the start of the experiment are used. Under isoflurane anesthesia, Alzet osmotic minipumps (2 ml2) are implanted subcutaneously, between the shoulder blades. The rats are returned to their home cages after recovery. The minipumps deliver 5 μL per hour for 14 days. Olanzapine is dissolved in dH2O+10% dilute lactic acid. A pH of about 3.5 enables the olanzapine to dissolve completely and produce a golden solution. This pH level has no effect on the animals in either the drug groups or the vehicle group. The animals are housed individually and are supplied with standard laboratory chow. Food consumed and animal weights are recorded every 3 days, to minimize disruption of the animals.

[3] = Case study Example 12: zonisamide added to clonazepam, fluoxetine and lamotrogine; assay type: in vivo, human; settings: person, bipolar disorder; zonisamide 100 mg qD added to clonazepam, fluoxetine, lamotrogine
Method: A person having biopolar disorder, Type I, had been treated for just over year by their psychiatrist using clonazepam 1 mg qHS, fluoxetine 20 mg qd, and lamotrogine 300 mg qD. One particular complaint was that they had “constant thoughts of eating”. Their psychiatrist started them on zonisamide 100 mg qD. […] The dose was continued and despite multiple stressors at home, they continued to do well on the treatment regimen.

[4] = Case study Example 13: zonisamide, paroxetine and risperidone; assay type: in vivo, human
Method: They were therefore started on zonisamide 100 mg, incraesed to 200 mg. […] The dose was then increased to 300 mg and then to 600 mg.

[5] = Case study Example 14: zonisamide, olanzapine, valproate and bupropion; assay type: in vivo, human; settings: for effect on weight gain resulting from olanzapine and valproate: summary of the case
Method: At this point, zonisamide was added to their medication regimen at 100 mg/day and the dose was increased to 200 mg/day after two weeks.

[6] = cited from earlier work
[7] = system: serotonin and dopamine synthesis; settings: cited from earlier work
dopamine D2 receptors = dopamine D2 receptors (Homo sapiens, UniProt P14416); settings: cited from earlier work
Chain of dopamine D2 receptors (P14416 whole entry): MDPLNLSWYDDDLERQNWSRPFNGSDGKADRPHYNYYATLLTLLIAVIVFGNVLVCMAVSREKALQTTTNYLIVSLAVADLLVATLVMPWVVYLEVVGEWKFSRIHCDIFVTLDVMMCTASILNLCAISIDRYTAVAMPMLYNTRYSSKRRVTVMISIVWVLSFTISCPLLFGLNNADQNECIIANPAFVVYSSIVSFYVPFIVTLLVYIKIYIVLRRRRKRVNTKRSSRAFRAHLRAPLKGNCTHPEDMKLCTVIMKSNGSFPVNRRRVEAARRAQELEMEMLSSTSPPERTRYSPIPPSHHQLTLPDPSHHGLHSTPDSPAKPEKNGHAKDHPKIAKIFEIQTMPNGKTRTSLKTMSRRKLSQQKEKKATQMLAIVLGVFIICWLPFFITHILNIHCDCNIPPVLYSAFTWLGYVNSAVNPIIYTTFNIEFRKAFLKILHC

For `NS(=O)(=O)Cc1noc2ccccc12` [zonisamide], the “food intake after intra-peritoneal injection” value (mice; mice) was “pronounced effects on food intake”, the “food intake over 24 hrs after intra-peritoneal injection” value (mice; mice) was “pronounced effects on food intake” and the food intake (mice) was “inhibit food intake”. The “electrophysiological activity of POMC neurons” value (POMC neurons) was “increase the electrophysiological activity of POMC neurons”, the “weight gain associated with mirtazapine” value [1] was “decreases the weight gain associated with mirtazapine” and the “weight gain associated with olanzapine” value [2] was “decrease the weight gain associated with olanzapine”. The craving for food [3] was “significantly reduced their craving for food”, the weight gain [3] was “prevented weight gain” and the weight lost ([4]; in 3 weeks, zonisamide 100 mg increased to 200 mg) was 12 pounds. The “weight relative to baseline” value ([4]; in 5 months, zonisamide increased to 300 mg and then 600 mg) was “their weight returned to baseline”, the weight lost ([5]; over the next 4 months, zonisamide 100 then 200 mg/day added to bupropion, olanzapine, valproate) was 15 lbs and the “effect on weight gain resulting from olanzapine and valproate” value [5] was “helped in further offsetting weight gain”. For the same molecule, the adverse effects ([5]; zonisamide 100 then 200 mg/day added to bupropion, olanzapine, valproate) was “no adverse effects”, the “weight reducing effects in humans” value ([6]; Gadde et al, 2003, 2001) was “well demonstrated in humans” and the “tolerability / side effects” value ([6]; compared with placebo treatment, Gadde et al, JAMA 2003) was “well tolerated; also recorded: fatigue being the only side effect that occurred more frequently than with placebo treatment”. The weight loss ([6]; patients presenting with primary obesity, Gadde et al, JAMA 2003) was “significant weight loss”, the “serotonin and dopamine synthesis rates” value [7] was “increases serotonin and dopamine synthesis rates” and the “stimulation of dopamine D2 receptors” value (dopamine D2 receptors) was “stimulates dopamine D2 receptors”.

In the case of `CC(NC(C)(C)C)C(=O)c1cccc(Cl)c1` (stereo not shown) [bupropion], the “food intake after intra-peritoneal injection” value (mice; mice) is reported as “pronounced effects on food intake”, the food intake (mice) is reported as “inhibit food intake” and the “electrophysiological activity of POMC neurons” value (POMC neurons) is reported as “increase the electrophysiological activity of POMC neurons”. The “weight gain associated with mirtazapine” value [1] was “decreases the weight gain associated with mirtazapine”, the weight loss ([4]; trial of bupropion alone, patient on paroxetine and risperidone) was “did not cause significant weight loss” and the weight lost ([5]; after 6 months, bupropion 150 mg/day added to olanzapine and valproate) was 23.6 lbs. The adverse effect reported ([5]; bupropion dose raised to 300 mg/day) was “feeling hyperactive”, the “adverse effect limiting higher dose” value ([5]; higher dose (300-400 mg/day) of bupropion) was “precipitation of hypomanic symptoms” and the weight regained ([5]; over the next 10 months while continuing bupropion) was 10.6 lbs. For the same molecule, the “effect on weight gain resulting from olanzapine and valproate” value [5] was “helped in decreasing weight gain”.
